According to patent US20090088373A1, “USE OF COMPOSITIONS TO ENHANCE INNATE IMMUNE RESPONSE” (priority 2007, published 2009):

Key:
cathelicidin = assay: Cathelicidin mRNA expression in normal human keratinocytes (NHEK); format: cell-based; design: Cathelicidin mRNA expression (Mean) / Cathelicidin mRNA expression (means): unit not given here; conditions: for Cathelicidin mRNA expression (means): 1 uM tacrolimus, 1 ug/ml CsA, 25ng/ml rapamycin; for Cathelicidin mRNA expression (Means of N = 3): Example 6, 10 nM Pimecrolimus, 1 nM 1,25D3
Protocol: (§1) To assess the effect of pimecrolimus on the innate immune response of the epidermis, cultures of normal human keratinocytes (NHEK) are stimulated with combinations of a concentration of 10 nM pimecrolimus, 1 μg/ml TLR 2/CD14 ligand—peptidoglycan (PGN), 10 μg/ml lipoteichoic acid (LTA), 2 0.1 μg/ml TLR 2/6 ligand—Malp-, and/or 0.1 μg/ml TLR 4/CD14 ligand—lipopolysaccharide (LPS). Expression of cathelicidin mRNA (Table 3) and protein as well as Human Beta Defensin (HBD) 2 (Table 4) and HBD3 (Table 5) expression in normal human keratinocytes is measured.
(§2) To assess the effect of pimecrolimus on the innate immune response of the epidermis, cultures of normal human keratinocytes (NHEK) are stimulated with a concentration of 10 nM pimecrolimus,1 nM 1.25 D3, 0.1 μg/ml TLR2/6 ligand Malp-2 or their combination. Expression of cathelicidin, CD14 and TLR2 mRNA normal human keratinocytes is measured and evaluated accordingly to the procedures as detailed in Example 2 above.
To assess the effect of pimecrolimus on the innate immune response of the epidermis, cultures of normal human keratinocytes (NHEK) are stimulated with a concentration of 10 nM pimecrolimus, 1 uM tacrolimus, 1 ug/ml CsA, 25ng/ml rapamycin, or a combination of pimecrolimus and rapamycin, each of these with or without 0.1 μg/ml TLR2/6 ligand Malp-2. Cathelicidin mRNA expression is evaluated.
(§3) To assess the effect of time dependent effects of pimecrolimus on the innate immune response of the epidermis, cultures of normal human keratinocytes (NHEK) are stimulated with 10 nM Pimecrolimus and low dose calciferol (1,25D3) 1 nM for different time points. mRNA expression of cathelicidin, CD14 and TLR2 is analyzed by qPCR.
To assess the effect of varying levels of pimecrolimus on the innate immune response of the epidermis, cultures of normal human keratinocytes (NHEK) are stimulated with 0 nM, 5 nM, 10 nM, 20 nM, 30 nM, […], […] and 60 nM concentrations of pimecrolimus. Expression of cathelicidin mRNA expression is measured and evaluated accordingly to the procedures as detailed in Example 2 above.
(§4) To assess the effect of calciferol on varying levels of pimecrolimus on the innate immune response of the epidermis, cultures of normal human keratinocytes (NHEK) are stimulated with 0.01 nM, 0.1 nM, 1 nM and 10 nM concentrations of pimecrolimus with or without 1 nM concentrations of calciferol for 24 hours. Expression of cathelicidin mRNA and gene expression of TLR2 is measured and evaluated accordingly to the procedures as detailed in Example 2 above.

[1] = tested on: Human Beta Defensin (HBD) 2; assay: HBD2 expression in normal human keratinocytes (NHEK); format: cell-based; design: unit not given here; conditions: Example 2; TLR ligand alone, without Pimecrolimus
Protocol: as §1

HBD3 = HBD3 expression in normal human keratinocytes (NHEK); format: cell-based; design: unit not given here; conditions: Example 2; TLR ligand alone, without Pimecrolimus
Protocol: as §1

CD14 = CD14 gene expression by qPCR in NHEK; format: cell-based, human; conditions: for CD14 mRNA expression (Mean): 10 nM pimecrolimus; for CD14 mRNA expression (Means of N = 3): Example 6, 10 nM Pimecrolimus, 1 nM 1,25D3
Protocol: (§5) To assess the effect of pimecrolimus on the innate immune response of the epidermis, cultures of normal human keratinocytes (NHEK) are stimulated with a combination of a concentration of 10 nM pimecrolimus and of 1 nM 1.25D3. Gene expression of TLR1, TLR2, TLR4, TLR6 and CD14 are evaluated by qPCR. For CD14 protein expression, a Western Blot is performed and bands are quantified by densitometry using lmagej. Vehicle treated keratinocytes serve as controls. Cathelicidin protein expression is evaluated by immunofluorescence staining.
as §2, §3

TLR2 = TLR2 gene expression by qPCR in NHEK; format: cell-based, human; conditions: for TLR2 mRNA expression (Mean): 10 nM pimecrolimus; for TLR2 mRNA expression (Means of N = 3): Example 6, 10 nM Pimecrolimus, 1 nM 1,25D3
Protocol: as §5, §2, §3, §4

TLR6 = TLR6 gene expression by qPCR in NHEK; format: cell-based, human; conditions: Example 3; 10 nM pimecrolimus, 1 nM 1.25D3
Protocol: as §5

[2] = tested on: Staphylococcus aureus ΔmprF; assay: Growth of S. aureus ΔmprF (OD600) mixed with lysates of stimulated normal human keratinocytes; format: cell-based; conditions: S. aureus + lysates of NHEK stimulated with 10 nM pimecrolimus, 1 nM 1.25D3 or combination, 37° C.
Protocol: To assess the effect of pimecrolimus on the innate immune response of the epidermis against bacteria, cultures of normal human keratinocytes (NHEK) are stimulated with a concentration of 10 nM pimecrolimus, 1 nM 1.25D3 (active 1.25 D-hydroxy calciferol) or their combination. Cells are lysed via sonication 20 minutes in an ice bath, after which cell lysates were mixed with Staphylococcus aureus ΔmprF cultures and incubated at 37° C. Bacterial growth over time is monitored by OD600 (Table 1). To determine if Pimecrolimus alone was able to kill Staphylococcus aureus ΔmprF, Pimecrolimus in a concentration of 10 nM is co-incubated with Staphylococcus aureus ΔmprF cultures and incubated at 37° C. (Table 2). Bacterial growth is monitored by OD600 (*: p<0.05; **: p<0.01; Student's t-test).

TLR1 = TLR1 gene expression by qPCR in NHEK; format: cell-based, human; conditions: Example 3; 10 nM pimecrolimus, 1 nM 1.25D3
Protocol: as §5

[3] = Example 2, TLR ligand alone, without Pimecrolimus (1 μg/ml PGN, 10 μg/ml LTA, 0.1 μg/ml Malp-2, 0.1 μg/ml LPS)
[4] = Example 5, Experiment 1, with 0.1 μg/ml Malp-2, 10 nM pimecrolimus
[5] = Example 5, Experiment 2, with 0.1 μg/ml Malp-2, 10 nM pimecrolimus
[6] = Example 5, Experiment 1, without Malp-2, 10 nM pimecrolimus
[7] = Example 5, Experiment 2, without Malp-2, 10 nM pimecrolimus
[8] = Example 4, 1 nM 1.25 D3, 0.1 μg/ml Malp-2 or combination

## Malp-2
cathelicidin; [3]
  Cathelicidin mRNA expression (Mean): 2.29
cathelicidin; [4]
  Cathelicidin mRNA expression (means): 1.53
cathelicidin; [5]
  Cathelicidin mRNA expression (means): 3.19
[1]
  HBD2 expression (Mean): 119.16
HBD3
  HBD3 expression (Mean): 3.51

## peptidoglycan [PGN]
cathelicidin; [3]
  Cathelicidin mRNA expression (Mean): 1.18
[1]
  HBD2 expression (Mean): 3.26
HBD3
  HBD3 expression (Mean): 0.61

## CO[C@H]1C[C@@H]2CC[C@@H](C)[C@@](O)(O2)C(=O)C(=O)N2CCCC[C@H]2C(=O)O[C@H]([C@H](C)C[C@@H]2CC[C@@H](O)[C@H](OC)C2)CC(=O)[C@H](C)/C=C(\C)[C@@H](O)[C@@H](OC)C(=O)[C@H](C)C[C@H](C)/C=C/C=C/C=C/1C [Rapamycin, rapamycin]
cathelicidin; [4]
  Cathelicidin mRNA expression (means): 4.03
cathelicidin; [6]
  Cathelicidin mRNA expression (means): 5.13
cathelicidin; [5]
  Cathelicidin mRNA expression (means): 12.38
cathelicidin; [7]
  Cathelicidin mRNA expression (means): 5.85

## C=CC[C@@H]1/C=C(\C)C[C@H](C)C[C@H](OC)[C@H]2O[C@@](O)(C(=O)C(=O)N3CCCC[C@H]3C(=O)O[C@H](/C(C)=C/[C@@H]3CC[C@@H](O)[C@H](OC)C3)[C@H](C)[C@@H](O)CC1=O)[C@H](C)C[C@@H]2OC [Tacrolimus, tacrolimus]
cathelicidin; [4]
  Cathelicidin mRNA expression (means): 5.47
cathelicidin; [6]
  Cathelicidin mRNA expression (means): 0.67
cathelicidin; [5]
  Cathelicidin mRNA expression (means): 0.77
cathelicidin; [7]
  Cathelicidin mRNA expression (means): 3.34

## lipopolysaccharide [LPS]
cathelicidin; [3]
  Cathelicidin mRNA expression (Mean): 0.65
[1]
  HBD2 expression (Mean): 5.68
HBD3
  HBD3 expression (Mean): 1.39

## C=C1/C(=C\C=C2/CCC[C@]3(C)[C@@H]([C@H](C)CCCC(C)(C)O)CC[C@@H]23)C[C@@H](O)C[C@@H]1O [1.25D3, 1.25 D-hydroxy calciferol]
cathelicidin; Example 4, 10 nM pimecrolimus, 1 nM 1.25 D3, 0.1 μg/ml Malp-2 or combination
  Cathelicidin mRNA expression (Mean): 2.76
cathelicidin; 0 h
  Cathelicidin mRNA expression (Means of N = 3): 1.00
cathelicidin; 8 h
  Cathelicidin mRNA expression (Means of N = 3): 35.04
cathelicidin; 24 h
  Cathelicidin mRNA expression (Means of N = 3): 134.03
cathelicidin; 48 h
  Cathelicidin mRNA expression (Means of N = 3): 92.37
CD14; Example 3, 1 nM 1.25D3
  CD14 mRNA expression (Mean): 3.01
CD14; [8]
  CD14 mRNA expression (Mean): 3.01
CD14; 0 h
  CD14 mRNA expression (Means of N = 3): 0.71
CD14; 8 h
  CD14 mRNA expression (Means of N = 3): 38.35
CD14; 24 h
  CD14 mRNA expression (Means of N = 3): 12.26
CD14; 48 h
  CD14 mRNA expression (Means of N = 3): 0.93
TLR2; Example 3, 1 nM 1.25D3
  TLR2 mRNA expression (Mean): 0.66
TLR2; [8]
  TLR2 mRNA expression (Mean): 0.10
TLR2; 0 h
  TLR2 mRNA expression (Means of N = 3): 1.00
TLR2; 8 h
  TLR2 mRNA expression (Means of N = 3): 1.32
TLR2; 24 h
  TLR2 mRNA expression (Means of N = 3): 1.51
TLR2; 48 h
  TLR2 mRNA expression (Means of N = 3): 1.55
TLR6
  TLR6 mRNA expression (Mean): 1.01
[2]; 0 h
  Bacterial growth OD600 (Mean): 0.2203
[2]; 2 h
  Bacterial growth OD600 (Mean): 0.2677
[2]; 4 h
  Bacterial growth OD600 (Mean): 0.301
[2]; 5 h
  Bacterial growth OD600 (Mean): 0.3963
[2]; 6 h
  Bacterial growth OD600 (Mean): 0.513
[2]; 8 h
  Bacterial growth OD600 (Mean): 0.6203
TLR1
  TLR1 mRNA expression (Mean): 1.93

## lipoteichoic acid [LTA]
cathelicidin; [3]
  Cathelicidin mRNA expression (Mean): 3.82
[1]
  HBD2 expression (Mean): 4.43
HBD3
  HBD3 expression (Mean): 2.46
